Test results taken from patent US9096548B2, “Pyrazine amide compounds” (Boehringer Ingelheim International GmbH, priority 2013, dated 2015).

Molecular target: T1, ENaC (Epithelial Sodium Channel) (Mus musculus, UniProt Q61180+Q9WU38+Q9WU39)
T1 construct: Mouse kidney M−1 cells were cultivated in DMEM; endogenous in cells; host or cells: Mouse kidney M-1 cells, cultivated with dexamethasone on transwell filters
T1 sequence (Q61180 1-699): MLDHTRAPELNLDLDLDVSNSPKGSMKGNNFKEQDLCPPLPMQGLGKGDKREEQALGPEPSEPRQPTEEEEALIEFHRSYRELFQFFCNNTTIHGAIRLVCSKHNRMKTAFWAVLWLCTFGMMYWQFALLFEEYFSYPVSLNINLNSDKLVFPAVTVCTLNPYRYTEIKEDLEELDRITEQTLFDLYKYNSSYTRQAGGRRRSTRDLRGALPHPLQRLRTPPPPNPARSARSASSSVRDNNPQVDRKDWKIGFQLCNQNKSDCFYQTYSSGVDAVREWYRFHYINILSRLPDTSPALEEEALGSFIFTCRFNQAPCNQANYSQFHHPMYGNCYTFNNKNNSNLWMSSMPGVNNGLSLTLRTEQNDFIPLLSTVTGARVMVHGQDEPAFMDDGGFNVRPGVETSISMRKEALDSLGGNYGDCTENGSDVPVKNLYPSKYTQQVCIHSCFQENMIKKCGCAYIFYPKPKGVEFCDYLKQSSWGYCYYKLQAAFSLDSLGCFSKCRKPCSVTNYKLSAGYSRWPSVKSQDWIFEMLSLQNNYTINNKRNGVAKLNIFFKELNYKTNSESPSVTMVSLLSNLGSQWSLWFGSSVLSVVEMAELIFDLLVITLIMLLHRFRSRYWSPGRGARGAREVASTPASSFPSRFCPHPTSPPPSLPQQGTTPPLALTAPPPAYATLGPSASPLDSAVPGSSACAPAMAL
T1 sequence (Q9WU38 1-638): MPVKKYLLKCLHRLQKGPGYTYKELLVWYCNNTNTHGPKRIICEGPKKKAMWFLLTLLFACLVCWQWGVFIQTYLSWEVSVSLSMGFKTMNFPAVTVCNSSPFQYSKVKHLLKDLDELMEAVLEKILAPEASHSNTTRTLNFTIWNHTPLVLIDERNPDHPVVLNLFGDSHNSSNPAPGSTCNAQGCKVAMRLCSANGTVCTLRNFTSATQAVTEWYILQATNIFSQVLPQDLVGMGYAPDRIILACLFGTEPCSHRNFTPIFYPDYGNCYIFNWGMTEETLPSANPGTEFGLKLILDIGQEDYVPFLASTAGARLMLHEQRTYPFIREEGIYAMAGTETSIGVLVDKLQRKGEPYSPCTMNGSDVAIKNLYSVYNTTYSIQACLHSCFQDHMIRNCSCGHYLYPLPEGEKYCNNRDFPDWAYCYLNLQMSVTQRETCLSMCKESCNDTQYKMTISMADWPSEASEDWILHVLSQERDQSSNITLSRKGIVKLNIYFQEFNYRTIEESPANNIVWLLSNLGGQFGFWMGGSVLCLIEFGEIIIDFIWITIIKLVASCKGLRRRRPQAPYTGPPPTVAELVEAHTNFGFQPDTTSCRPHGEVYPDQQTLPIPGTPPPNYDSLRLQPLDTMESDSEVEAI
T1 sequence (Q9WU39 1-655): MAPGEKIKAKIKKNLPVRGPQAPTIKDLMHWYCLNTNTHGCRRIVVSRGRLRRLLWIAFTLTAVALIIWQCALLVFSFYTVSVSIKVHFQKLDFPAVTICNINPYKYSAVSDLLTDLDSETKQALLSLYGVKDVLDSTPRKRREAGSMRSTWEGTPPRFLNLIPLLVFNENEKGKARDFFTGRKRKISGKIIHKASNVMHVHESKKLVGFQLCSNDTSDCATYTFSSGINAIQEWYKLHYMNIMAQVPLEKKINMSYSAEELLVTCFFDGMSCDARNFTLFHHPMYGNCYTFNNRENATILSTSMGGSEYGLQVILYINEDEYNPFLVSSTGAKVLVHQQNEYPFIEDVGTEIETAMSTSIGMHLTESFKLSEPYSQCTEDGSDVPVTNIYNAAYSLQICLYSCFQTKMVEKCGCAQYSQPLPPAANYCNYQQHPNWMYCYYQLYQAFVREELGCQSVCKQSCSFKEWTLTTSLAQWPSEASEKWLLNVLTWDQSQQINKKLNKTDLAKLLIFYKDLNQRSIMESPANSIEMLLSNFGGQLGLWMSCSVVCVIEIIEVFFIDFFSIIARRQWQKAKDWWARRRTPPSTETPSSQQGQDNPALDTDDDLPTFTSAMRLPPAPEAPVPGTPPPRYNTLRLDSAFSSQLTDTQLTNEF
Experiment: Ussing Chamber assay (short circuit current, amiloride sensitive I_SC)
Format: cell-based
Settings: Ussing chamber, mouse kidney M-1 cells, short circuit current, compound added to the apical solution; read-out: IC50
Method: The IC50 values of the example compounds given above were determined in the Ussing Chamber assay.
Ussing Chamber: Mouse kidney M−1 cells were cultivated in DMEM containing 5% FCS and 5 μM dexamethasone for 10 to 12 days on polyester transwell filters. Filters were inserted into a teflon-coated well-plate which fit into the ussing chamber system. Prior to measurement the medium of M−1 cells was replaced with Caco-2 transport buffer (Invitrogen, Germany). During measurements, the Ussing chamber temperature was kept at 37° C. Short circuit currents (I_sc) were measured in the voltage-clamp mode with the software package Lab View for data acquisition and analysis. The transepithelial electrical resistance (TEER) was determined by the application of voltage steps of ±5 mV every 5 sec. Compounds were administered at a final concentration of 3 μM or at increasing concentrations (1-3-10 μM) to the apical solution. At the end of each experiment the amiloride sensitive I_SC was measured by adding 3 μM amiloride to the apical compartment. Results are expressed as inhibition in percent of the amiloride effect or as IC50.

For `CC(O)CN(C)C(=O)COc1ccc(CCC[N+]2(CCCc3ccc(OCC(=O)N(C)CC(C)O)cc3)CCC[C@H](NC(=O)c3nc(Cl)c(N)nc3N)C2)cc1` (some centres unmarked) [Example 6.26], the IC50 was 70 nM.
With `CN(Cc1cccnc1)C(=O)COc1ccc(CCC[N+]2(CCCc3ccc(OCC(=O)N(C)Cc4cccnc4)cc3)CCC[C@H](NC(=O)c3nc(Cl)c(N)nc3N)C2)cc1` [Example 6.27] the IC50 was 17 nM.
With `CN(C)C(=O)CNC(=O)COc1ccc(CCC[N+]2(CCCc3ccc(OCC(=O)NCC(=O)N(C)C)cc3)CCC[C@H](NC(=O)c3nc(Cl)c(N)nc3N)C2)cc1` [Example 6.28] the IC50 was 41 nM.
`CN(CCC#N)C(=O)COc1ccc(CCC[N+]2(CCCc3ccc(OCC(=O)N(C)CCC#N)cc3)CCC[C@H](NC(=O)c3nc(Cl)c(N)nc3N)C2)cc1` [Example 6.29] showed an IC50 of 105 nM.
`Nc1nc(N)c(C(=O)N[C@H]2CCC[N+](CCCc3ccc(OCC(=O)N4CC[S+]([O-])CC4)cc3)(CCCc3ccc(OCC(=O)N4CC[S+]([O-])CC4)cc3)C2)nc1Cl` [Example 6.30] was tested, and the IC50 was 209 nM.
`N#CCNC(=O)COc1ccc(CCC[N+]2(CCCc3ccc(OCC(=O)NCC#N)cc3)CCC[C@H](NC(=O)c3nc(Cl)c(N)nc3N)C2)cc1` [Example 6.31] gave an IC50 of 18 nM.
For `CN(C)C(=O)CN(C)C(=O)COc1ccc(CCC[N+]2(CCCc3ccc(OCC(=O)N(C)CC(=O)N(C)C)cc3)CCC[C@H](NC(=O)c3nc(Cl)c(N)nc3N)C2)cc1` [Example 6.32], the IC50 was 232 nM.
For `Cn1ccnc1CNC(=O)COc1ccc(CCC[N+]2(CCCc3ccc(OCC(=O)NCc4nccn4C)cc3)CCC[C@H](NC(=O)c3nc(Cl)c(N)nc3N)C2)cc1` [Example 6.33], the IC50 was 21 nM.
Molecule `COCCCN(C)C(=O)COc1ccc(CCC[N+]2(CCCc3ccc(OCC(=O)N(C)CCCOC)cc3)CCC[C@H](NC(=O)c3nc(Cl)c(N)nc3N)C2)cc1` [Example 6.34] has an IC50 of 44 nM.
Molecule `Nc1nc(N)c(C(=O)N[C@H]2CCC[N+](CCCc3ccc(OCC(=O)NCCN4CCCC4=O)cc3)(CCCc3ccc(OCC(=O)NCCN4CCCC4=O)cc3)C2)nc1Cl` [Example 6.35] has an IC50 of 16 nM.
Work on `Nc1nc(N)c(C(=O)N[C@H]2CCC[N+](CCCc3ccc(OCC(=O)N4CCC(O)(CO)CC4)cc3)(CCCc3ccc(OCC(=O)N4CCC(O)(CO)CC4)cc3)C2)nc1Cl` [Example 6.36] yielded an IC50 of 67 nM.
`CS(=O)(=O)CCNC(=O)COc1ccc(CCC[N+]2(CCCc3ccc(OCC(=O)NCCS(C)(=O)=O)cc3)CCC[C@H](NC(=O)c3nc(Cl)c(N)nc3N)C2)cc1` [Example 6.37] showed an IC50 of 28 nM.
`Nc1nc(N)c(C(=O)N[C@H]2CCC[N+](CCCc3ccc(OCC(=O)NCCO)cc3)(CCCc3ccc(OCC(=O)NCCO)cc3)C2)nc1Cl` [Example 6.38] was tested, and the IC50 was 45 nM.
In the case of `Nc1nc(N)c(C(=O)N[C@H]2CCC[N+](CCCc3ccc(OCC(=O)NC(CO)c4cccnc4)cc3)(CCCc3ccc(OCC(=O)NC(CO)c4cccnc4)cc3)C2)nc1Cl` (some centres unmarked) [Example 6.39], the IC50 is reported as 11 nM.
For `Cn1cnc(CNC(=O)COc2ccc(CCC[N+]3(CCCc4ccc(OCC(=O)NCc5cn(C)cn5)cc4)CCC[C@H](NC(=O)c4nc(Cl)c(N)nc4N)C3)cc2)c1` [Example 6.40], the IC50 was 21 nM.
`Cn1cncc1CNC(=O)COc1ccc(CCC[N+]2(CCCc3ccc(OCC(=O)NCc4cncn4C)cc3)CCC[C@H](NC(=O)c3nc(Cl)c(N)nc3N)C2)cc1` [Example 6.41] was tested, and the IC50 was 18 nM.
Work on `Nc1nc(N)c(C(=O)N[C@H]2CCC[N+](CCCc3ccc(OCC(=O)OCC4COCCN4)cc3)(CCCc3ccc(OCC(=O)OCC4COCCN4)cc3)C2)nc1Cl` (some centres unmarked) [Example 6.42] yielded an IC50 of 112 nM.
For `CS(=O)(=O)CCCNC(=O)COc1ccc(CCC[N+]2(CCCc3ccc(OCC(=O)NCCCS(C)(=O)=O)cc3)CCC[C@H](NC(=O)c3nc(Cl)c(N)nc3N)C2)cc1` [Example 6.43], the IC50 was 64 nM.
Work on `Nc1nc(N)c(C(=O)N[C@H]2CCC[N+](CCCc3ccc(OCC(=O)N4CCn5ccnc5C4)cc3)(CCCc3ccc(OCC(=O)N4CCn5ccnc5C4)cc3)C2)nc1Cl` [Example 6.44] yielded an IC50 of 88 nM.
`C[S+]([O-])CCNC(=O)COc1ccc(CCC[N+]2(CCCc3ccc(OCC(=O)NCC[S+](C)[O-])cc3)CCC[C@H](NC(=O)c3nc(Cl)c(N)nc3N)C2)cc1` (some centres unmarked) [Example 6.45] gave an IC50 of 39 nM.
